Results taken from patent US20200360520A1, “USE OF RIFAMYCIN-QUINOLIZIDONE COUPLING MOLECULE” (priority 2019, published 2020).
Values after ≈ are worked out from the molar mass of the structure shown. Where two headings read alike, the source gives them in different places. One block for each molecule: values may come before it.

Columns and labels:
Type in all cases: cell-based
Mycobacterium abscessus [1] = assay: MIC by micro broth dilution method (resazurin microtiter assay); settings: Mycobacteroides abscessus, read-out: Minimum Inhibitory Concentration (MIC)
Mycobacterium avium [2] = assay: as above; settings: read-out: Minimum Inhibitory Concentration (MIC)
Mycobacterium avium [3] = assay: MBC test (plating on agar, CFU count); settings: Mycobacterium avium, read-out: Minimum Bactericidal Concentration (MBC)
Mycobacterium abscessus [4] = assay: MBC test (plating on agar, CFU count); settings: for Minimum Bactericidal Concentration (MBC): MH Culture Medium; for MBC: Mycobacteroides abscessus, 7H9 Culture Medium, read-out: Minimum Bactericidal Concentration (MBC)
Mycobacterium kansasii [5] = assay: MBC test (plating on agar, CFU count); settings: Mycobacterium kansasii, Mycobacterium kansasii, read-out: Minimum Bactericidal Concentration (MBC)
Mycobacterium kansasii [6] = assay: MIC by micro broth dilution method (resazurin microtiter assay); settings: Mycobacterium kansasii, Mycobacterium kansasii, read-out: Minimum Inhibitory Concentration (MIC)
Mycobacterium fortuitum = assay: as above; settings: Mycolicibacterium fortuitum, MH Culture Medium, read-out: Minimum Inhibitory Concentration (MIC)
[7] = tested on: Mycobacterium intracellulare; assay: as above; settings: Mycobacterium intracellulare, MH Culture Medium, read-out: Minimum Inhibitory Concentration (MIC)
[8] = tested on: Mycobacterium massiliense; assay: as above; settings: Mycobacteroides abscessus, MH Culture Medium, read-out: Minimum Inhibitory Concentration (MIC)
Mycodacterium chelonei = assay: as above; settings: MH Culture Medium; Chelonei (standard strain); read-out: Minimum Inhibitory Concentration (MIC)
[9] = 7H9 Broth, Mycobacterium avium Smooth
[10] = MH Broth, Mycobacterium avium Smooth
[11] = 7H9 Culture Medium, Mycobacterium avium Smooth
[12] = MH Culture Medium, Mycobacterium avium Smooth

SMILES: O=C(O)c1cn(C2CC2)c2cc(N3CCNCC3)c(F)cc2c1=O [Ciprofloxacin, ciprofloxacin]
MIC (Mycobacterium abscessus [1]; 7H9 Broth): 16 µg/mL (≈ 48.3 µM)
MIC (Mycobacterium abscessus [1]; MH Broth): > 64 µg/mL
MIC (Mycobacterium avium [2]; [9]): > 64 µg/mL
MIC (Mycobacterium avium [2]; [10]): > 64 µg/mL
MBC (Mycobacterium avium [3]; [11]): > 64 µg/mL
MBC (Mycobacterium avium [3]; [12]): > 64 µg/mL
Minimum Bactericidal Concentration (MBC) (Mycobacterium abscessus [4]): >64 µg/mL
MBC (Mycobacterium abscessus [4]): > 64 µg/mL
MBC (Mycobacterium kansasii [5]; 7H9 Culture Medium): > 64 µg/mL
MBC (Mycobacterium kansasii [5]; MH Culture Medium): > 64 µg/mL
MIC (Mycobacterium kansasii [6]; 7H9 Broth): > 64 µg/mL
MIC (Mycobacterium kansasii [6]; MH Broth): > 64 µg/mL

MIC (Mycobacterium fortuitum; Fortuitum (standard strain)): 1 µg/mL (≈ 2.49 µM)
MIC (Mycobacterium fortuitum; clinically isolated strain Fortuitum (S103)): 1 µg/mL (≈ 2.49 µM)
MIC (Mycobacterium fortuitum; clinically isolated strain Fortuitum (S111)): 0.5 µg/mL (≈ 1.25 µM)
MIC ([7]; Intracellulare (standard strain)): 0.25 µg/mL (≈ 0.623 µM)
MIC ([7]; clinically isolated strain Intracellulare (S90)): 2 µg/mL (≈ 4.98 µM)
MIC ([7]; clinically isolated strain Intracellulare (S261)): 2 µg/mL (≈ 4.98 µM)
MIC ([7]; clinically isolated strain Intracellulare (S269)): 2 µg/mL (≈ 4.98 µM)
MIC ([7]; clinically isolated strain Intracellulare (S290)): 2 µg/mL (≈ 4.98 µM)
MIC ([7]; clinically isolated strain Intracellulare (S291)): 1 µg/mL (≈ 2.49 µM)
MIC ([7]; clinically isolated strain Intracellulare (S298)): 2 µg/mL (≈ 4.98 µM)
MIC ([7]; clinically isolated strain Intracellulare (S541)): 64 µg/mL (≈ 159 µM)
MIC ([7]; clinically isolated strain Intracellulare (S623)): 2 µg/mL (≈ 4.98 µM)
MIC ([7]; clinically isolated strain Intracellulare (ZPS)): 1 µg/mL (≈ 2.49 µM)
MIC ([7]; clinically isolated strain intracellulare (S442)): 2 µg/mL (≈ 4.98 µM)
MIC ([8]; clinically isolated strain Massiliense (D10)): 32 µg/mL (≈ 79.7 µM)
MIC ([8]; clinically isolated strain Massiliense (D14)): 32 µg/mL (≈ 79.7 µM)
MIC ([8]; clinically isolated strain Massiliense (D18)): 8 µg/mL (≈ 19.9 µM)
MIC (Mycobacterium avium [2]; MH Culture Medium, Avium (standard strain)): 1 µg/mL (≈ 2.49 µM)
MIC (Mycobacterium avium [2]; MH Culture Medium, clinically isolated strain Avium (S31)): 8 µg/mL (≈ 19.9 µM)
MIC (Mycobacterium avium [2]; MH Culture Medium, clinically isolated strain Avium (S123)): 0.5 µg/mL (≈ 1.25 µM)
MIC (Mycobacterium avium [2]; MH Culture Medium, clinically isolated strain Avium (S559)): 1 µg/mL (≈ 2.49 µM)
MIC (Mycobacterium avium [2]; MH Culture Medium, clinically isolated strain Avium (S568)): 0.5 µg/mL (≈ 1.25 µM)
MIC (Mycobacterium avium [2]; MH Culture Medium, clinically isolated strain Avium (S577)): 0.5 µg/mL (≈ 1.25 µM)
MIC (Mycobacterium avium [2]; MH Culture Medium, clinically isolated strain Avium (S597)): 2 µg/mL (≈ 4.98 µM)
MIC (Mycobacterium avium [2]; MH Culture Medium, clinically isolated strain Avium (S602)): 4 µg/mL (≈ 9.96 µM)
MIC (Mycodacterium chelonei): 4 µg/mL (≈ 9.96 µM)
MIC (Mycobacterium kansasii [6]; MH Culture Medium, Kansasii (standard strain)): 0.0625 µg/mL (≈ 0.156 µM)
MIC (Mycobacterium kansasii [6]; MH Culture Medium, clinically isolated strain Kansasii (S9)): 0.0625 µg/mL (≈ 0.156 µM)
MIC (Mycobacterium kansasii [6]; MH Culture Medium, clinically isolated strain Kansasii (S199)): 0.0625 µg/mL (≈ 0.156 µM)
MIC (Mycobacterium kansasii [6]; MH Culture Medium, clinically isolated strain Kansasii (S520)): 0.0625 µg/mL (≈ 0.156 µM)
MIC (Mycobacterium kansasii [6]; MH Culture Medium, clinically isolated strain Kansasii (S609)): 0.0625 µg/mL (≈ 0.156 µM)
SMILES: COc1c(N2C[C@@H]3CCCN[C@@H]3C2)c(F)cc2c(=O)c(C(=O)O)cn(C3CC3)c12 [Moxifloxacin, moxifloxacin]

MIC (Mycobacterium abscessus [1]; 7H9 Broth): 32 µg/mL (≈ 54.6 µM)
MIC (Mycobacterium abscessus [1]; MH Broth): 16 µg/mL (≈ 27.3 µM)
MIC (Mycobacterium avium [2]; 7H9 Broth, Mycobacterium avium Rough): > 64 µg/mL
MIC (Mycobacterium avium [2]; [9]): 2 µg/mL (≈ 3.42 µM)
MIC (Mycobacterium avium [2]; MH Broth, Mycobacterium avium Rough): 2 µg/mL (≈ 3.42 µM)
MIC (Mycobacterium avium [2]; [10]): 2 µg/mL (≈ 3.42 µM)
MIC (Mycobacterium kansasii [6]; 7H9 Broth): 16 µg/mL (≈ 27.3 µM)
MIC (Mycobacterium kansasii [6]; MH Broth): 1 µg/mL (≈ 1.71 µM)
SMILES: NCC[C@H](O)C(=O)N[C@@H]1C[C@H](N)[C@@H](O[C@H]2O[C@H](CN)[C@@H](O)[C@H](O)[C@H]2O)[C@H](O)[C@H]1O[C@H]1O[C@H](CO)[C@@H](O)[C@H](N)[C@H]1O [Amikacin, amikacin]
MBC (Mycobacterium avium [3]; 7H9 Culture Medium, Mycobacterium avium Rough): > 64 µg/mL
MBC (Mycobacterium avium [3]; [11]): > 64 µg/mL
MBC (Mycobacterium avium [3]; MH Culture Medium, Mycobacterium avium Rough): > 64 µg/mL
MBC (Mycobacterium avium [3]; [12]): > 64 µg/mL
Minimum Bactericidal Concentration (MBC) (Mycobacterium abscessus [4]): >64 µg/mL
MBC (Mycobacterium abscessus [4]): > 64 µg/mL
MBC (Mycobacterium kansasii [5]; 7H9 Culture Medium): 64 µg/mL (≈ 109 µM)
MBC (Mycobacterium kansasii [5]; MH Culture Medium): > 64 µg/mL
